According to ChEMBL document CHEMBL1128323, “Antifungal agents. 9. 3-Aryl-4-[alpha-(1H-imidazol-1-yl)arylmethyl]pyrroles: a new class of potent anti-Candida agents” (1995):
≈ marks a conversion by molar mass, not a printed value. Where “and” joins values, the source holds several entries; their conditions need not be identical. Equal entries are not always repeated.

Legend:
Type in all cases: functional
[1] = tested on: Candida albicans; assay: Percent resistance against Candida albicans (40 clinical isolates) at 256 micro g/mL (pH=5.8), activity is expressed as R%.
[2] = tested on: Candida albicans; assay: Resistance against Candida. albicans (40 clinical isolates) at 256 ug/mL (pH=7.2), activity is expressed as R%.
[3] = tested on: Candida albicans; assay: Inhibitory activity against Candida albicans (40 clinical isolates), determined at pH-5.8
[4] = tested on: Candida albicans; assay: Inhibitory activity against Candida albicans (40 clinical isolates), determined at pH-7.2
[5] = tested on: Candida; assay: Inhibitory activity against Candida. species. (40 clinical isolates), determined at pH-5.8
[6] = tested on: Candida; assay: Inhibitory activity against Candida. species (40 clinical isolates), determined at pH-5.8
[7] = tested on: Candida; assay: 50% inhibitory activity against the Candida. species (40 clinical isolates) was determined at pH-7.2
[8] = tested on: Candida; assay: 90% inhibitory activity against the Candida. species (40 clinical isolates) was determined at pH-7.2
[9] = tested on: Candida; assay: The compound was tested for percent resistance against all Candida. species (40 clinical isolates) at 256 ug/mL (pH=7.2), activity is expressed as R%.
[10] = tested on: Candida albicans; assay: Inhibitory activity against the Candida albicans (40 clinical isolates), determined at pH-5.8
[11] = tested on: Candida albicans; assay: Inhibitory activity against the Candida albicans (40 clinical isolates), determined at pH-7.2
[12] = tested on: Candida albicans; assay: 50% inhibitory activity against Candida albicans (40 clinical isolates) determined at pH-5.8
[13] = tested on: Candida; assay: Inhibitory activity against the Candida. species. (40 clinical isolates) was determined at pH-7.2
[14] = tested on: Candida; assay: The compound was tested for percent resistance against all Candida. species (40 clinical isolates) at 256 ug/mL (pH=5.8), activity is expressed as R%.
[15] = tested on: Candida albicans; assay: 50% inhibitory activity against Candida albicans (40 clinical isolates) determined at pH-7.2
[16] = tested on: Candida; assay: Inhibitory activity against Candida. species. (40 clinical isolates), determined at pH-7.2
[17] = tested on: Candida; assay: Resistance against all Candida. species (40 clinical isolates) at 256 micro g/mL (pH=5.8). Activity is expressed as R%.
[18] = tested on: Candida; assay: Percent resistance against all Candida. species (40 clinical isolates) at 256 micro g/mL (pH=7.2), activity is expressed as R%.
[19] = tested on: Candida; assay: 90% inhibitory activity against Candida. species (40 clinical isolates) determined at pH-7.2
[20] = tested on: Oryctolagus cuniculus; assay: Topical comparison with bifonazole in white male rabbits at 1% concentration of compound
[21] = tested on: Oryctolagus cuniculus; assay: Topical comparison with bifonazole in white male rabbits by treatment twice daily on 15 consecutive days starting 48 hr after inoculation.
[22] = tested on: Candida albicans; assay: The compound was tested for percent resistance against Candida. albicans (40 clinical isolates) at 256 micro g/mL (pH=7.2), activity is expressed as R%.
[23] = tested on: Candida; assay: The compound was tested for percent resistance against all Candida. species (40 clinical isolates) at 256 micro g/mL (pH=5.8), activity is expressed as R%.
[24] = Candida albicans, read-out: MIC50

SMILES | R [1] [%] | R [2] [%] | MIC [3] [µg/mL] | MIC [4] [µg/mL] | MIC [5] [µg/mL] | MIC50 [6] [µg/mL] | MIC90 [6] [µg/mL] | MIC50 [7] [µg/mL] | MIC90 [8] [µg/mL] | MIC90 [10] [µg/mL] | MIC90 [11] [µg/mL] | MIC50 [12] [µg/mL] | MIC50 [15, 24] [µg/mL] | MIC [16] [µg/mL] | R [17] [%] | R [18] [%] | other results
c1ccc(-c2c[nH]cc2C(c2ccccc2)n2ccnc2)cc1 (stereo not given) | 0 | 2.7 | 53.9 (≈ 180 µM) | > 35.4 | 88 (≈ 294 µM) | 128 (≈ 428 µM) | 128 (≈ 428 µM) | > 256 | > 256 | 128 (≈ 428 µM) | 64 (≈ 214 µM) | 32 (≈ 107 µM) | 32 (≈ 107 µM) |  |  |  | R [9]: 75%; MIC [13]: > 396 µg/mL; R [14]: 0%
Fc1ccc(C(c2c[nH]cc2-c2ccccc2)n2ccnc2)cc1 (stereo not given) | 0 | 0 | 71.2 (≈ 224 µM) | 55.1 (≈ 174 µM) | 99.5 (≈ 314 µM) | 64 (≈ 202 µM) | 128 (≈ 403 µM) | 64 (≈ 202 µM) | 128 (≈ 403 µM) | 128 (≈ 403 µM) | 64 (≈ 202 µM) |  | 32 (≈ 101 µM) | 74.5 (≈ 235 µM) | 0 | 0 | MIC50 [15]: 64 µg/mL (≈ 202 µM)
Cc1ccc(C(c2c[nH]cc2-c2ccccc2)n2ccnc2)cc1 (stereo not given) | 0 | 0 | 133 (≈ 425 µM) | 48.4 (≈ 154 µM) | 71 (≈ 227 µM) | 64 (≈ 204 µM) | 256 (≈ 817 µM) | 64 (≈ 204 µM) | 64 (≈ 204 µM) | 256 (≈ 817 µM) | 64 (≈ 204 µM) |  | 32 (≈ 102 µM) | 51.6 (≈ 165 µM) | 0 | 0 | MIC50 [15]: 64 µg/mL (≈ 204 µM)
O=[N+]([O-])c1ccc(C(c2c[nH]cc2-c2ccccc2)n2ccnc2)cc1 (stereo not given) | 0 | 0 | 56.7 (≈ 165 µM) | 5.18 (≈ 15 µM) | 182 (≈ 529 µM) | 128 (≈ 372 µM) | > 256 | 256 (≈ 743 µM) | 256 (≈ 743 µM) | 128 (≈ 372 µM) | 64 (≈ 186 µM) | 8 (≈ 23.2 µM) | 8 (≈ 23.2 µM) | > 192 | 0 | 20 | 
Nc1ccc(C(c2c[nH]cc2-c2ccccc2)n2ccnc2)cc1 (stereo not given) | 0 | 0 | 142 (≈ 453 µM) | 162 (≈ 515 µM) | > 327 | 256 (≈ 814 µM) | > 256 | 256 (≈ 814 µM) | > 256 | 256 (≈ 814 µM) | 128 (≈ 407 µM) | 128 (≈ 407 µM) | 128 (≈ 407 µM) | > 331 | 80 | 80 | 
Clc1ccc(C(c2c[nH]cc2-c2ccccc2)n2ccnc2)cc1 (stereo not given) | 0 | 0 | 47.3 (≈ 142 µM) | 21.3 (≈ 63.8 µM) | 51.4 (≈ 154 µM) | 64 (≈ 192 µM) | 64 (≈ 192 µM) | 32 (≈ 95.9 µM) | 128 (≈ 383 µM) | 64 (≈ 192 µM) | 128 (≈ 383 µM) |  |  | 40 (≈ 120 µM) | 0 | 0 | 
Clc1ccc(-c2c[nH]cc2C(c2ccccc2)n2ccnc2)cc1 (stereo not given) | 0 | 0 | 12.8 (≈ 38.3 µM) | 6.4 (≈ 19.2 µM) | 44.4 (≈ 133 µM) | 32 (≈ 95.9 µM) | 32 (≈ 95.9 µM) | 32 (≈ 95.9 µM) |  | 32 (≈ 95.9 µM) | 16 (≈ 47.9 µM) | 16 (≈ 47.9 µM) | 2 (≈ 5.99 µM) | 46.5 (≈ 139 µM) | 0 | 0 | MIC90 [19]: 128 µg/mL (≈ 383 µM); Percentage of animals [20]: 50% and 83%; No. of animals [21]: 33%
c1ccc(-c2ccc(C(c3ccccc3)n3ccnc3)cc2)cc1 (stereo not given) [BIFONAZOLE] | 0 |  | 3.72 (≈ 12 µM) | 4.1 (≈ 13.2 µM) | 7.5 (≈ 24.2 µM) | 8 (≈ 25.8 µM) | 8 (≈ 25.8 µM) | 4 (≈ 12.9 µM) | 16 (≈ 51.5 µM) | 16 (≈ 51.5 µM) | 16 (≈ 51.5 µM) | 4 (≈ 12.9 µM) | 4 (≈ 12.9 µM) | 4.5 (≈ 14.5 µM) | 0 | 0 | R [22]: 0%; Percentage of animals [20]: 3% and 6% and 10%
CC(=O)N1CCN(c2ccc(OC[C@H]3CO[C@](Cn4ccnc4)(c4ccc(Cl)cc4Cl)O3)cc2)CC1 [KETOCONAZOLE] | 0 |  | 8.6 (≈ 16.2 µM) | 8.3 (≈ 15.6 µM) | 16.9 (≈ 31.8 µM) | 4 (≈ 7.53 µM) | 32 (≈ 60.2 µM) | 4 (≈ 7.53 µM) | 32 (≈ 60.2 µM) | 32 (≈ 60.2 µM) | 32 (≈ 60.2 µM) | 0.5 (≈ 0.941 µM) | 2 (≈ 3.76 µM) | 8.1 (≈ 15.2 µM) |  | 0 | R [22]: 0%; Fungicidal [23]: 0%
